Results on 26 compounds are retold here after patent US8563542B2 (Cyclacel Limited, priority 2007, dated 2013).

Counter-ions that a name gives are not always drawn. Like-named read-outs stand apart in the source and are kept apart here.

For this test, the target named is PLK1 (Homo sapiens, UniProt P53350). Put plainly: PLK1 protein kinase assay (CDC25C phosphorylation, [γ-32P]-ATP). It is filed as biochemical. To be noted: for Ki: Table 6.
Chain of PLK1 (P53350 whole entry): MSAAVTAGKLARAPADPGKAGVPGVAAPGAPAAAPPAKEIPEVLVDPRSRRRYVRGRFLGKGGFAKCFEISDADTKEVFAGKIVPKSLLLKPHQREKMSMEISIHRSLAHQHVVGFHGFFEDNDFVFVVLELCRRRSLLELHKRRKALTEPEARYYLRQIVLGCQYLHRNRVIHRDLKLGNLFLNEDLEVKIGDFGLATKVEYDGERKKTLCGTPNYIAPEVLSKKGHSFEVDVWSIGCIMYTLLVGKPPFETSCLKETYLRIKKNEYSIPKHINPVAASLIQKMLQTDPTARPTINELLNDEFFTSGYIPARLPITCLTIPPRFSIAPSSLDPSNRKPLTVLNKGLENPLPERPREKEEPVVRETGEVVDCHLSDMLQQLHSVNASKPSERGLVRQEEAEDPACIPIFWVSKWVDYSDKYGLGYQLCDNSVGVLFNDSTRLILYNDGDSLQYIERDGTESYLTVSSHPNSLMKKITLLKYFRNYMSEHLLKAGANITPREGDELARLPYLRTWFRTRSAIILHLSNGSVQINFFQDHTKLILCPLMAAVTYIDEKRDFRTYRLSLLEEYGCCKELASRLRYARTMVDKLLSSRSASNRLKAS

As to `CCN1CCN([C@H]2CC[C@@H](NC(=O)c3ccc(Nc4ncc5c(n4)N(C4CCCC4)CC4(CC4)C(=O)N5C)c(OC)c3)CC2)CC1` [Compound 380, 4-(9′-cyclopentyl-5′-methyl-6′-oxo-5′,6′,8′,9′-tetrahydrospiro[cyclopropane-1,7′-pyrimido[4,5-b][1,4]diazepine]-2′-ylamino)-N-((cis)-4-(4-ethylpiperazin-1-yl)cyclohexyl)-3-methoxybenzamide], the concentration for half-maximal inhibition (IC50) (as a rule, the concentration that gives 50% inhibition) (Table 3, read-out: PLK1 IC50) is less than 100 nM. Same read-out and setting: with `COc1cc(C(=O)NC2CCC(N3CCCN(CC4CC4)CC3)CC2)ccc1Nc1ncc2c(n1)N(C1CCCC1)CC1(CC1)C(=O)N2C` (centres unmarked) [Compound 381, 4-(9′-cyclopentyl-5′-methyl-6′-oxo-5′,6′,8′,9′-tetrahydrospiro[cyclopropane-1,7′-pyrimido[4,5-b][1,4]diazepine]-2′-ylamino)-N-(4-(4-(cyclopropylmethyl)-1,4-diazepan-1-yl)cyclohexyl)-3-methoxybenzamide] the figure was less than 100 nM. The same measure, in the same setting: with `CCN1CCCN(C2CCC(NC(=O)c3ccc(Nc4ncc5c(n4)N(C4CCCC4)CC4(CC4)C(=O)N5C)c(OC)c3)CC2)CC1` (centres unmarked) [Compound 382, 4-(9′-cyclopentyl-5′-methyl-6′-oxo-5′,6′,8′,9′-tetrahydrospiro[cyclopropane-1,7′-pyrimido[4,5-b][1,4]diazepine]-2′-ylamino)-N-(4-(4-ethyl-1,4-diazepan-1-yl)cyclohexyl)-3-methoxybenzamide] the figure was less than 100 nM; with `COc1cc(C(=O)NC2CCC(N3CCCN(Cc4ccccc4)CC3)CC2)ccc1Nc1ncc2c(n1)N(C1CCCC1)CC1(CC1)C(=O)N2C` (centres unmarked) [Compound 383, N-(4-(4-benzyl-1,4-diazepan-1-yl)cyclohexyl)-4-(9′-cyclopentyl-5′-methyl-6′-oxo-5′,6′,8′,9′-tetrahydrospiro[cyclopropane-1,7′-pyrimido[4,5-b][1,4]diazepine]-2′-ylamino)-3-methoxybenzamide], 100 to 1000 nM.

On to `COc1cc(C(=O)N[C@H]2CC[C@H](N3CCN(C)CC3)CC2)ccc1Nc1ncc2c(n1)N(C1CCCC1)CC1(CC1)C(=O)N2C` [Compound 384, 4-(9′-cyclopentyl-5′-methyl-6′-oxo-5′,6′,8′,9′-tetrahydrospiro[cyclopropane-1,7′-pyrimido[4,5-b][1,4]diazepine]-2′-ylamino)-N-((trans)-4-(4-methylpiperazin-1-yl)cyclohexyl)-3-methoxybenzamide], for which the IC50 (Table 3, read-out: PLK1 IC50) was less than 100 nM. `COc1cc(C(=O)N[C@H]2CC[C@@H](N3CCN(C)CC3)CC2)ccc1Nc1ncc2c(n1)N(C1CCCC1)CC1(CC1)C(=O)N2C` [Compound 385, 4-(9′-cyclopentyl-5′-methyl-6′-oxo-5′,6′,8′,9′-tetrahydrospiro[cyclopropane-1,7′-pyrimido[4,5-b][1,4]diazepine]-2′-ylamino)-N-((cis)-4-(4-methylpiperazin-1-yl)cyclohexyl)-3-methoxybenzamide]: the IC50 (Table 3, read-out: PLK1 IC50) is less than 100 nM. Take `COc1cc(C(=O)N[C@H]2CC[C@H](N3CCN(Cc4ccccc4)CC3)CC2)ccc1Nc1ncc2c(n1)N(C1CCCC1)CC1(CC1)C(=O)N2C` [Compound 386, N-((trans)-4-(4-benzylpiperazin-1-yl)cyclohexyl)-4-(9′-cyclopentyl-5′-methyl-6′-oxo-5′,6′,8′,9′-tetrahydrospiro[cyclopropane-1,7′-pyrimido[4,5-b][1,4]diazepine]-2′-ylamino)-3-methoxybenzamide]: under “Table 3, read-out: PLK1 IC50”, the IC50 is less than 100 nM.

On to `COc1cc(C(=O)N[C@H]2CC[C@@H](N3CCN(Cc4ccccc4)CC3)CC2)ccc1Nc1ncc2c(n1)N(C1CCCC1)CC1(CC1)C(=O)N2C` [Compound 387, N-((cis)-4-(4-benzylpiperazin-1-yl)cyclohexyl)-4-(9′-cyclopentyl-5′-methyl-6′-oxo-5′,6′,8′,9′-tetrahydrospiro[cyclopropane-1,7′-pyrimido[4,5-b][1,4]diazepine]-2′-ylamino)-3-methoxybenzamide], for which, under “Table 3, read-out: PLK1 IC50”, the IC50 fell in the range of 100 to 1000 nM. The same measure, in the same setting: with `COc1cc(C(=O)N[C@H]2CC[C@H](N3CCOCC3)CC2)ccc1Nc1ncc2c(n1)N(C1CCCC1)CC(C)(C)C(=O)N2C` [Compound 388, 4-(9-cyclopentyl-5,7,7-trimethyl-6-oxo-6,7,8,9-tetrahydro-5H-pyrimido[4,5-b][1,4]diazepin-2-ylamino)-3-methoxy-N-((trans)-4-morpholinocyclohexyl)benzamide] the figure was less than 100 nM; with `COc1cc(C(=O)N[C@H]2CC[C@@H](N3CCOCC3)CC2)ccc1Nc1ncc2c(n1)N(C1CCCC1)CC(C)(C)C(=O)N2C` [Compound 389, 4-(9-cyclopentyl-5,7,7-trimethyl-6-oxo-6,7,8,9-tetrahydro-5H-pyrimido[4,5-b][1,4]diazepin-2-ylamino)-3-methoxy-N-((cis)-4-morpholinocyclohexyl)benzamide], 100 to 1000 nM; with `COc1cc(C(=O)N[C@H]2CC[C@H](N3CCOCC3)CC2)ccc1Nc1ncc2c(n1)N(C1CCCC1)CC1(CC1)C(=O)N2C` [Compound 390, 4-(9′-cyclopentyl-5′-methyl-6′-oxo-5′,6′,8′,9′-tetrahydrospiro[cyclopropane-1,7′-pyrimido[4,5-b][1,4]diazepine]-2′-ylamino)-3-methoxy-N-((trans)-4-morpholinocyclohexyl)benzamide], less than 100 nM.

Take `COc1cc(C(=O)N[C@H]2CC[C@@H](N3CCOCC3)CC2)ccc1Nc1ncc2c(n1)N(C1CCCC1)CC1(CC1)C(=O)N2C` [Compound 391, 4-(9′-cyclopentyl-5′-methyl-6′-oxo-5′,6′,8′,9′-tetrahydrospiro[cyclopropane-1,7′-pyrimido[4,5-b][1,4]diazepine]-2′-ylamino)-3-methoxy-N-((cis)-4-morpholinocyclohexyl)benzamide]: the IC50 (Table 3, read-out: PLK1 IC50) is less than 100 nM. With `COc1cc(C(=O)NN2CCCC2)ccc1Nc1ncc2c(n1)N(C1CCCC1)CC1(CC1)C(=O)N2C` [Example [I-253] of WO 07/095188, reference compound], the Ki (as a rule, a measure of affinity in units of concentration, obtained from inhibition or displacement) is less than 10 nM. As to `COc1cc(C(=O)NC2CCN(C)CC2)ccc1Nc1ncc2c(n1)N(C1CCCC1)CC1(CCC1)C(=O)N2C` [WO 2007/095188 [I-64], reference compound], the IC50 (Table 4, read-out: PLK1 IC50) was less than 100 nM.

For `COc1cc(C(=O)NC2CCN(C)CC2)ccc1Nc1ncc2c(n1)N(C1CCCC1)CC1(CC1)C(=O)N2C` [WO 2007/095188 [I-76], reference compound], the IC50 (Table 4, read-out: PLK1 IC50) is less than 100 nM. `COc1cc(C(=O)NN2CCN(C)CC2)ccc1Nc1ncc2c(n1)N(C1CCCC1)CC1(CC1)C(=O)N2C` [[254]•HCl, 4-(9′-cyclopentyl-5′-methyl-6′-oxo-5′,6′,8′,9′-tetrahydrospiro[cyclopropane-1,7′-pyrimido[4,5-b][1,4]diazepine]-2′-ylamino)-3-methoxy-N-(4-methylpiperazin-1-yl)benzamide.HCl]: the Ki is less than 10 nM.

As for `COc1cc(C(=O)O)ccc1Nc1ncc2c(n1)N(C1CCCC1)C(C)CC(=O)N2` (centres unmarked) [compound 3, 4-(9-Cyclopentyl-8-methyl-6-oxo-6,7,8,9-tetrahydro-5H-pyrimido[4,5-b][1,4]diazepin-2-ylamino)-3-methoxy-benzoic acid], the IC50 (Table 1, read-out: PLK1 IC50) was less than 10000 nM. For `COc1cc(C(=O)O)ccc1Nc1ncc2c(n1)N(C1CCCC1)C(C)CC(=O)N2C` (centres unmarked) [compound 4, 4-(9-Cyclopentyl-5,8-dimethyl-6-oxo-6,7,8,9-tetrahydro-5H-pyrimido[4,5-b][1,4]diazepin-2-ylamino)-3-methoxy-benzoic acid], under “Table 1, read-out: PLK1 IC50”, the IC50 is less than 10000 nM. As to `COc1cc(C(=O)O)ccc1Nc1ncc2c(n1)N(C1CCCCC1)C(C)CC(=O)N2` (centres unmarked) [compound 5, 4-(9-Cyclohexyl-8-methyl-6-oxo-6,7,8,9-tetrahydro-5H-pyrimido[4,5-b][1,4]diazepin-2-ylamino)-3-methoxy-benzoic acid], the IC50 (Table 1, read-out: PLK1 IC50) is less than 10000 nM. Same read-out and setting: with `O=C1CCN(C2CCCCC2)c2nc(Nc3ccc(O)cc3)ncc2N1` [compound 10, 9-Cyclohexyl-2-(4-hydroxy-phenylamino)-5,7,8,9-tetrahydro-pyrimido[4,5-b][1,4]diazepin-6-one] the figure was less than 10000 nM; with `CC1CN(C2CCCC2)c2nc(Nc3ccc(O)cc3)ncc2NC1=O` (centres unmarked) [compound 11, 9-Cyclopentyl-2-(4-hydroxy-phenylamino)-7-methyl-5,7,8,9-tetrahydro-pyrimido[4,5-b][1,4]diazepin-6-one], less than 10000 nM; with `CC1CC(=O)N(C)c2cnc(Nc3ccc(O)cc3)nc2N1C1CCCC1` (centres unmarked) [compound 13, 9-Cyclopentyl-2-(4-hydroxy-phenylamino)-5,8-dimethyl-5,7,8,9-tetrahydro-pyrimido[4,5-b][1,4]diazepin-6-one], less than 10000 nM.

On to `COc1cc(C(=O)NC2CCN(C)CC2)ccc1Nc1ncc2c(n1)N(C1CCCC1)CC(C)C(=O)N2` (centres unmarked) [compound 17, 4-(9-Cyclopentyl-7-methyl-6-oxo-6,7,8,9-tetrahydro-5H-pyrimido[4,5-b][1,4]diazepin-2-ylamino)-3-methoxy-N-(1-methyl-piperidin-4-yl)-benzamide], for which, under “Table 1, read-out: PLK1 IC50”, the IC50 was less than 10000 nM. Turning to `COc1cc(C(=O)NC2CCN(C)CC2)ccc1Nc1ncc2c(n1)N(C1CCCC1)C(C(C)C)CC(=O)N2` (centres unmarked) [compound 19, 4-(9-Cyclopentyl-8-isopropyl-6-oxo-6,7,8,9-tetrahydro-5H-pyrimido[4,5-b][1,4]diazepin-2-ylamino)-3-methoxy-N-(1-methyl-piperidin-4-yl)-benzamide], where the note is “Table 1, read-out: PLK1 IC50”, the half-maximal inhibitory concentration (IC50) is less than 10000 nM. As to `COc1cc(C(=O)NC2CCN(C)CC2)ccc1Nc1ncc2c(n1)N(C1CCCC1)CC(C)C(=O)N2C` (centres unmarked) [compound 20, 4-(9-Cyclopentyl-5,7-dimethyl-6-oxo-6,7,8,9-tetrahydro-5H-pyrimido[4,5-b][1,4]diazepin-2-ylamino)-3-methoxy-N-(1-methyl-piperidin-4-yl)-benzamide], the IC50 is less than 100 nM.

Regarding `COc1cc(C(=O)NC2CCN(C)CC2)ccc1Nc1ncc2c(n1)N(C1CCCC1)C(C(C)C)CC(=O)N2C` (centres unmarked) [compound 23, 4-(9-Cyclopentyl-8-isopropyl-5-methyl-6-oxo-6,7,8,9-tetrahydro-5H-pyrimido[4,5-b][1,4]diazepin-2-ylamino)-3-methoxy-N-(1-methyl-piperidin-4-yl)-benzamide], the half-maximal inhibitory concentration (IC50) (Table 1, read-out: PLK1 IC50) was less than 10000 nM.
